Measurements reported in patent publication US20230348978A1, “TREATMENT OF ALZHEIMER'S DISEASE” (SELONTERRA, INC., priority 2020, published 2023).

System: E4E4 neurons
Assay: qPCR gene expression in E4E4 neurons treated with GPR4 agonist
Assay type: cell-based, human
Conditions: six hours, vs E4E4 vehicle-treated neurons
Source text: Example 1: Cultivation of human isogenic neurons carrying either the homozygous APOE4 genotype (E4E4) or the homozygous APOE3 genotype (E3E3). Commercially available human isogenic neurons were acquired from Fujifilm Cellular Dynamics Inc. The homozygous APOE4 genotype (E4E4) neurons were designated DDP-NRC-1× 01434.779 and herein they are referred to as E4E4 neurons. The homozygous APOE3 genotype (E3E3) neurons were designated R1013 and herein they are referred to as E3E3 neurons. The neurons were plated and cultivated in 96-well plates. Prior to plating of neurons, the manufacturer supplied complete maintenance medium was prepared and stored at 4 degrees Celsius. The 96-well plates were double coated with poly-L-ornithin (PLO Sigma; P4957) and laminin (Sigma; L2020) by first coating the wells with poly-L-ornithin overnight at 4 degrees Celsius. Wells were rinsed with phosphate-buffered saline and then laminin diluted in phosphate-buffered saline at a concentration of 10 micrograms/milliliter was added for three hours. Complete maintenance medium was equilibrated to room temperature. Neurons were thawed for three minutes in a 37 degrees Celsius water bath. The content of the vial was transferred to a 50 ml conical tube by adding one milliliter of room-temperature equilibrated complete maintenance medium and suspending the neurons. The neuron suspension was transferred to the 50 ml conical tube. This neuron suspension was further diluted by addition of eight milliliter of complete maintenance medium. A viable neuron count was performed and the neurons were plated into individual wells of a 96-well plate at a neuronal seed density of 125,000 neurons per cm^2. The E3E3 and the E4E4 containing 96-well plates were transferred into a cell incubator and incubated at 37 degrees Celsius and 5% CO2. E3E3 and E4E4 neurons plated in this way were allowed to attach to the wells of the 96-well plate for 24 hours at which time a 100% medium change to fresh complete maintenance medium was performed. The E3E3 and E4E4 neurons were then continued to be cultivated at 37 degrees Celsius and 5% CO2. On Day 5 after plating a 50% medium change was performed by removal of 50% of the cell supernatant and addition of the same volume of fresh complete maintenance medium and then the 96-well plates were continued to be cultivated at 37 degrees Celsius and 5% CO2. On Day 9 after plating, a 50% medium change was performed by removal of 50% of the cell supernatant and addition of the same volume of fresh complete maintenance medium. This medium change was performed before neurons were treated with compounds on Day 9 after plating.
Example 2: Treatment of E4E4 neurons with the exemplary GPR4 agonist SLC2004 and vehicle and E3E3 neurons with vehicle. E4E4 and E3E3 neurons were plated and cultivated in individual wells of a 96-well plate as described in Example 1. The compound spingosylphosphorylcholine (SLC2004) (Sigma; S4257) is a lyophilized powder with a white to yellow appearance and a molecular weight of 464.62 Dalton. A fresh stock solution of SLC2004 was prepared in methanol as vehicle at a stock concentration of 300 millimolar. This stock solution was further diluted to yield two 21-fold concentrated solutions of the intended in-well concentrations. For one of the 21-fold concentrated SLC2004 solution, a final SLC2004 in-well concentration of 3 micromolar was achieved by adding 10 microliters of this 21-fold concentrated SLC2004 solution to 200 microliters of complete maintenance medium in each well of the 96-well plate. For the second 21-fold concentrated SLC2004 solution, a final SLC2004 in-well concentration of 10 micromolar was achieved by adding 10 microliters of this 21-fold concentrated SLC2004 solution to 200 microliters of complete maintenance medium in each well of the 96-well plate. All wells with SLC2004-treated neurons contained the same amount of 0.01% methanol in complete maintenance medium. […]

Which results are given for `CCCCCCCCCCCCC/C=C/[C@@H](O)[C@@H](N)COP(=O)([O-])OCC[N+](C)(C)C` [SLC2004, sphingosylphosphorylcholine]?
expression of CCND3 (3 micromolar): upregulated; expression of ITGB3 (3 micromolar): downregulated; expression of VCL (3 micromolar): upregulated; expression of BDNF (10 micromolar): upregulated; expression of CTGF (10 micromolar): upregulated; expression of YAP1 (10 micromolar): upregulated
